Measurements published in patent publication US11077090B2, “Compounds and compositions and uses thereof” (Sunovion Pharmaceuticals Inc., priority 2016, dated 2021).
Read-outs that look alike come from different tables or passages of the source.

Test system: compound-treated mice
Assay: Neuropharmacological assay (SmartCube): behavioral activity signature and minimal effective dose
Assay type: in vivo
Conditions: for minimal effective dose: Mus musculus, ip, MED = dose having 50% or more total activity; for AD: ADHD (probability of activity signature) / AG: analgesic (probability of activity signature) / AX: anxiolytic (probability of activity signature) / CE: cognitive enhancer (probability of activity signature) / DP: anti-depressant (probability of activity signature) / MS: mood stabilizer (probability of activity signature) / PS: anti-psychotic (probability of activity signature) / SD: sedative hypnotic (probability of activity signature) / UN: uncharacterized CNS activity (probability of activity signature): i.p. 15 min before test, most efficacious dose(s)
Text: Neurosci. 2011 Sep. 9; 5:103 (doi: 10.3389/fnins.2011.00103) (“Roberds”). As reported in Roberds, because psychiatric diseases generally result from disorders of cell-cell communication or circuitry, intact systems are useful in detecting improvement in disease-relevant endpoints. These endpoints are typically behavioral in nature, often requiring human observation and interpretation. To facilitate testing of multiple compounds for behavioral effects relevant to psychiatric disease, PsychoGenics, Inc. (Tarrytown, N.Y., “PGI”) developed SmartCube™, an automated system in which behaviors of compound-treated mice are captured by digital video and analyzed with computer algorithms. (D. Brunner et al., Drug Discov. Today 2002, 7:S107-S112). PGI Analytical Systems uses data from SmartCube™ to compare the behavioral signature of a test compound to a database of behavioral signatures obtained using a large set of diverse reference compounds. (The composition of the database as well as validation of the method is further described in Roberds). In this way, the neuropharmacological effects of a test compound can be predicted by similarity to major classes of compounds, such as antipsychotics, anxiolytics and antidepressants.
The SmartCube™ system produces an activity signature indicating the probability that the activity of the test compound at the administered dose matches a given class of neuropharmacological agents. (See, e.g., Roberds, FIGS. 2 and 3). The test compound is simultaneously compared against multiple classes of agents; thus, a separate probability is generated for each behavioral effect measured (e.g., anxiolytic activity, analgesic activity, etc.). In the table below, these probabilities are reported for each behavioral effect measured as follows:
where LOQ is the limit of quantification.
Provided compounds were dissolved in a mixture of Pharmasolve™ (N-methyl-2-pyrrolidone), polyethylene glycol and propylene glycol, and were injected i.p. 15 min. before the behavioral test. For each compound, injections were administered at 3 different doses. For each behavioral effect measured, results for the most efficacious dose(s) are presented. In the table below, DP: anti-depressant; AX: anxiolytic; SD: sedative hypnotic; PS: anti-psychotic; MS: mood stabilizer; AD: ADHD; CE: cognitive enhancer; AG: analgesic; UN: uncharacterized CNS activity.
The potency of many of the compounds in the table was also determined in the SmartCube™ system. Test compounds were routinely examined at dose levels of 0.3, 1, 3, 10 and 30 mg per kg (mpk), although the dose range was increased or decreased if necessary to obtain a full dose response curve. A compound's minimal effective dose (MED) is a measure of the compounds potency. The MED was defined as the dose (in mpk) having 50% or more total activity in SmartCube.

[1] = read-out: Potency: minimal effective dose (MED), binned

COc1ccc2c(c1)[C@H](N)[C@H](C)OC2 (single isomer, unassigned) [Example 173]
minimal effective dose [1]: 3 to 10 mg/kg
AD: ADHD (probability of activity signature): + (LOQ ≤ + <5%)
AG: analgesic (probability of activity signature): ++ (5% ≤ ++ <25%)
AX: anxiolytic (probability of activity signature): ++ (5% ≤ ++ <25%)
CE: cognitive enhancer (probability of activity signature): ++ (5% ≤ ++ <25%)
DP: anti-depressant (probability of activity signature): + (LOQ ≤ + <5%)
MS: mood stabilizer (probability of activity signature): + (LOQ ≤ + <5%)
PS: anti-psychotic (probability of activity signature): + (LOQ ≤ + <5%)
SD: sedative hypnotic (probability of activity signature): + (LOQ ≤ + <5%)
UN: uncharacterized CNS activity (probability of activity signature): ++++ (50% ≤ ++++)

Cc1ccc(Cl)c2c1[C@H](N)[C@H](C)OC2.Cl [Example 225]
minimal effective dose [1]: 3 to 10 mg/kg
AD: ADHD (probability of activity signature): + (LOQ ≤ + <5%)
AG: analgesic (probability of activity signature): ++ (5% ≤ ++ <25%)
AX: anxiolytic (probability of activity signature): ++ (5% ≤ ++ <25%)
CE: cognitive enhancer (probability of activity signature): ++ (5% ≤ ++ <25%)
DP: anti-depressant (probability of activity signature): ++ (5% ≤ ++ <25%)
MS: mood stabilizer (probability of activity signature): + (LOQ ≤ + <5%)
PS: anti-psychotic (probability of activity signature): ++ (5% ≤ ++ <25%)
SD: sedative hypnotic (probability of activity signature): ++ (5% ≤ ++ <25%)
UN: uncharacterized CNS activity (probability of activity signature): ++++ (50% ≤ ++++)

Cc1cccc2c1[C@H](N)CO[C@@H]2C [Example 226]
minimal effective dose [1]: 10 to 30 mg/kg
AD: ADHD (probability of activity signature): + (LOQ ≤ + <5%)
AG: analgesic (probability of activity signature): + (LOQ ≤ + <5%)
AX: anxiolytic (probability of activity signature): ++ (5% ≤ ++ <25%)
CE: cognitive enhancer (probability of activity signature): ++ (5% ≤ ++ <25%)
DP: anti-depressant (probability of activity signature): ++ (5% ≤ ++ <25%)
MS: mood stabilizer (probability of activity signature): + (LOQ ≤ + <5%)
PS: anti-psychotic (probability of activity signature): +++ (25% ≤ +++ <50%)
SD: sedative hypnotic (probability of activity signature): + (LOQ ≤ + <5%)
UN: uncharacterized CNS activity (probability of activity signature): ++ (5% ≤ ++ <25%)

N[C@H]1COCc2c(Cl)cccc21 [Example 132]
minimal effective dose (read-out: Potency: minimal effective dose (MED)): < 3 mg/kg
AD: ADHD (probability of activity signature): + (LOQ ≤ + <5%)
AG: analgesic (probability of activity signature): ++ (5% ≤ ++ <25%)
AX: anxiolytic (probability of activity signature): +++ (25% ≤ +++ <50%)
CE: cognitive enhancer (probability of activity signature): +++ (25% ≤ +++ <50%)
DP: anti-depressant (probability of activity signature): ++ (5% ≤ ++ <25%)
MS: mood stabilizer (probability of activity signature): + (LOQ ≤ + <5%)
PS: anti-psychotic (probability of activity signature): ++ (5% ≤ ++ <25%)
SD: sedative hypnotic (probability of activity signature): ++ (5% ≤ ++ <25%)
UN: uncharacterized CNS activity (probability of activity signature): +++ (25% ≤ +++ <50%)

C[C@@H]1OCc2ccc3c(c2[C@@H]1N)CCCO3.Cl [Example 248]
minimal effective dose [1]: 10 to 30 mg/kg
AD: ADHD (probability of activity signature): + (LOQ ≤ + <5%)
AG: analgesic (probability of activity signature): ++ (5% ≤ ++ <25%)
AX: anxiolytic (probability of activity signature): ++ (5% ≤ ++ <25%)
CE: cognitive enhancer (probability of activity signature): ++ (5% ≤ ++ <25%)
DP: anti-depressant (probability of activity signature): + (LOQ ≤ + <5%)
MS: mood stabilizer (probability of activity signature): + (LOQ ≤ + <5%)
PS: anti-psychotic (probability of activity signature): + (LOQ ≤ + <5%)
SD: sedative hypnotic (probability of activity signature): + (LOQ ≤ + <5%)
UN: uncharacterized CNS activity (probability of activity signature): +++ (25% ≤ +++ <50%)

CC[C@@H]1OCc2ccccc2[C@@H]1N.Cl (single isomer, unassigned) [Example 198]
minimal effective dose [1]: < 3 mg/kg
AD: ADHD (probability of activity signature): + (LOQ ≤ + <5%)
AG: analgesic (probability of activity signature): + (LOQ ≤ + <5%)
AX: anxiolytic (probability of activity signature): ++ (5% ≤ ++ <25%)
CE: cognitive enhancer (probability of activity signature): ++ (5% ≤ ++ <25%)
DP: anti-depressant (probability of activity signature): ++ (5% ≤ ++ <25%)
MS: mood stabilizer (probability of activity signature): + (LOQ ≤ + <5%)
PS: anti-psychotic (probability of activity signature): +++ (25% ≤ +++ <50%)
SD: sedative hypnotic (probability of activity signature): + (LOQ ≤ + <5%)
UN: uncharacterized CNS activity (probability of activity signature): +++ (25% ≤ +++ <50%)

Cc1ccc2c(c1)[C@H](N)[C@H](C(C)C)OC2 [Example 211]
minimal effective dose [1]: 3 to 10 mg/kg
AD: ADHD (probability of activity signature): + (LOQ ≤ + <5%)
AG: analgesic (probability of activity signature): + (LOQ ≤ + <5%)
AX: anxiolytic (probability of activity signature): ++ (5% ≤ ++ <25%)
CE: cognitive enhancer (probability of activity signature): + (LOQ ≤ + <5%)
DP: anti-depressant (probability of activity signature): ++ (5% ≤ ++ <25%)
MS: mood stabilizer (probability of activity signature): + (LOQ ≤ + <5%)
PS: anti-psychotic (probability of activity signature): ++ (5% ≤ ++ <25%)
SD: sedative hypnotic (probability of activity signature): +++ (25% ≤ +++ <50%)
UN: uncharacterized CNS activity (probability of activity signature): ++++ (50% ≤ ++++)

CC[C@@H]1OCc2cccc(Cl)c2[C@@H]1N (single isomer, unassigned) [Example 218]
minimal effective dose [1]: < 3 mg/kg
AD: ADHD (probability of activity signature): + (LOQ ≤ + <5%)
AG: analgesic (probability of activity signature): + (LOQ ≤ + <5%)
AX: anxiolytic (probability of activity signature): ++ (5% ≤ ++ <25%)
CE: cognitive enhancer (probability of activity signature): ++ (5% ≤ ++ <25%)
DP: anti-depressant (probability of activity signature): + (LOQ ≤ + <5%)
MS: mood stabilizer (probability of activity signature): + (LOQ ≤ + <5%)
PS: anti-psychotic (probability of activity signature): ++ (5% ≤ ++ <25%)
SD: sedative hypnotic (probability of activity signature): + (LOQ ≤ + <5%)
UN: uncharacterized CNS activity (probability of activity signature): ++++ (50% ≤ ++++)

CCN(C)C(=O)Oc1ccc2c(c1)[C@H](N)[C@H](C)OC2.Cl [Example 281]
minimal effective dose [1]: > 30 mg/kg
AD: ADHD (probability of activity signature): + (LOQ ≤ + <5%)
AG: analgesic (probability of activity signature): + (LOQ ≤ + <5%)
AX: anxiolytic (probability of activity signature): + (LOQ ≤ + <5%)
CE: cognitive enhancer (probability of activity signature): + (LOQ ≤ + <5%)
DP: anti-depressant (probability of activity signature): + (LOQ ≤ + <5%)
MS: mood stabilizer (probability of activity signature): + (LOQ ≤ + <5%)
PS: anti-psychotic (probability of activity signature): + (LOQ ≤ + <5%)
SD: sedative hypnotic (probability of activity signature): + (LOQ ≤ + <5%)
UN: uncharacterized CNS activity (probability of activity signature): + (LOQ ≤ + <5%)

Cc1cccc2c1[C@H](N)[C@H](C)OC2 (single isomer, unassigned) [Example 169]
minimal effective dose [1]: < 3 mg/kg
AD: ADHD (probability of activity signature): + (LOQ ≤ + <5%)
AG: analgesic (probability of activity signature): ++ (5% ≤ ++ <25%)
AX: anxiolytic (probability of activity signature): ++ (5% ≤ ++ <25%)
CE: cognitive enhancer (probability of activity signature): ++ (5% ≤ ++ <25%)
DP: anti-depressant (probability of activity signature): ++ (5% ≤ ++ <25%)
MS: mood stabilizer (probability of activity signature): + (LOQ ≤ + <5%)
PS: anti-psychotic (probability of activity signature): ++ (5% ≤ ++ <25%)
SD: sedative hypnotic (probability of activity signature): ++ (5% ≤ ++ <25%)
UN: uncharacterized CNS activity (probability of activity signature): ++++ (50% ≤ ++++)

CC(C)[C@@H]1OCc2ccccc2[C@H]1N.Cl (relative stereo) [Example 257, trans-3-Isopropylisochroman-4-amine hydrochloride]
minimal effective dose [1]: 3 to 10 mg/kg
AD: ADHD (probability of activity signature): + (LOQ ≤ + <5%)
AG: analgesic (probability of activity signature): + (LOQ ≤ + <5%)
AX: anxiolytic (probability of activity signature): + (LOQ ≤ + <5%)
CE: cognitive enhancer (probability of activity signature): + (LOQ ≤ + <5%)
DP: anti-depressant (probability of activity signature): ++ (5% ≤ ++ <25%)
PS: anti-psychotic (probability of activity signature): ++ (5% ≤ ++ <25%)
UN: uncharacterized CNS activity (probability of activity signature): ++ (5% ≤ ++ <25%)
MS: mood stabilizer (probability of activity signature) (hydrochloride): ++ (5% ≤ ++ <25%)
SD: sedative hypnotic (probability of activity signature) (hydrochloride): +++ (25% ≤ +++ <50%)

Cl.N[C@H]1c2ccccc2CO[C@H]1CF (relative stereo) [Example 275, cis-3-(fluoromethyl)isochroman-4-amine hydrochloride]
minimal effective dose [1]: 3 to 10 mg/kg
AD: ADHD (probability of activity signature): + (LOQ ≤ + <5%)
AG: analgesic (probability of activity signature): + (LOQ ≤ + <5%)
AX: anxiolytic (probability of activity signature): + (LOQ ≤ + <5%)
CE: cognitive enhancer (probability of activity signature): + (LOQ ≤ + <5%)
DP: anti-depressant (probability of activity signature): + (LOQ ≤ + <5%)
MS: mood stabilizer (probability of activity signature): ++ (5% ≤ ++ <25%)
PS: anti-psychotic (probability of activity signature): + (LOQ ≤ + <5%)
SD: sedative hypnotic (probability of activity signature): +++ (25% ≤ +++ <50%)
UN: uncharacterized CNS activity (probability of activity signature): ++ (5% ≤ ++ <25%)
